According to patent US20160361391A1, “REDUCTION OF TRAF1 LEVELS COMBINED WITH NUTRIENT STRESS FOR TREATING LYMPHOCYTE-RELATED CANCERS” (THE GOVERNING COUNCIL OF THE UNIVERSITY OF TORONTO, priority 2014, published 2016):

B1: Erwinase: Licensed drug derived from the Asparaginase of Erwinia chrysanthemi; nutrient stress-inducing agent (protein, UniProt P06608 22-348, looked up)
L-asparaginase: ADKLPNIVILATGGTIAGSAATGTQTTGYKAGALGVDTLINAVPEVKKLANVKGEQFSNMASENMTGDVVLKLSQRVNELLARDDVDGVVITHGTDTVEESAYFLHLTVKSDKPVVFVAAMRPATAISADGPMNLLEAVRVAGDKQSRGRGVMVVLNDRIGSARYITKTNASTLDTFKANEEGYLGVIIGNRIYYQNRIDKLHTTRSVFDVRGLTSLPKVDILYGYQDDPEYLYDAAIQHGVKGIVYAGMGAGSVSVRGIAGMRKAMEKGVVVIRSTRTGNGIVPPDEELPGLVSDSLNPAHARILLMLALTRTSDPKVIQEYFHTY

Columns and labels:
Assay type in all cases: cell-based, human
[1] = system: Chronic lymphocytic leukemia cell line MEC2; assay: Annexin V / propidium iodide cell death by flow cytometry, MEC2; settings: MEC2, 1 IU/ml Erwinase, 0, 18, 24 or 42 hrs
Protocol: MEC2 cells were transfected with control shRNA (shCTRL), shTRAF1 or shPKN1 and then were left untreated or treated with 1 IU/ml Erwinase for 0, 18, 24 or 42 hrs. Cell death was measured by flow cytometry for Annexin V and propidium iodide (PI), where double staining for Annexin V and Propidium iodide (PI) is used to indicate cell death.

[2] = system: TRAF1; assay: TRAF1 levels by Western blot after shRNA knockdown; settings: RAJI and Daudi cells with shRNA to PKN1, versus shCtrl
Protocol: Left: RAJI cells were stably transfected with control small hairpin (sh) RNA or with shRNA designed to knockdown expression of TRAF1 (shRNAs obtained from Open Biosystems (TRC library number: TRCN0000056885 sequence: […]) (SEQ ID NO:1)). TRAF1 levels in RAJI expressing shCtrl or with shTRAF1 were analyzed by Western blot. Protein loading was analyzed based on GAPDH levels. Right: TRAF1 levels in B-chronic lymphocytic leukemia (CLL) lines and Daudi CD5+ (a Burkitt's lymphoma with CLL like properties) were determined by Western blot.
Left: Schematic diagram of TRAF1 indicating site of phosphorylation by PKN1 as identified by Kato et al.^29 Middle: RAJI cells were stably transfected with control shRNA (shCtrl), TRAF1 shRNA (shTRAF1) or PKN1 shRNA (shPKN1) (obtained from Open Biosystems (TRC library number: TRCN0000001484 sequence: […] (SEQ ID NO:2)). Right: Daudi cells were transduced with control shRNA (shCTRL), shRNA targeting TRAF1 (shTRAF1) or shRNA targeting PKN1 (shPKN1). Cells were analyzed for levels of TRAF1, tubulin or GAPDH by western blot. “Pool” refers to bulk transfected cell lines without subcloning.
Based on the finding that primary T cells lacking TRAF1 are sensitive to loss of TRAF2 when 4-1 BB signalling is induced during nutrient stress, the role of the reduction of TRAF1 levels combined with nutrient stress on B lymphomas was tested. […]

[3] = system: RAJI cells; assay: Annexin V / propidium iodide cell death by flow cytometry, RAJI; settings: 1 IU/ml Erwinase
Protocol: RAJI cells stably expressing control shRNA (shCtrl), TRAF1 shRNA (shTRAF1) or PKN1 shRNA (shPKN1) were left untreated or treated with 1 IU/ml Erwinase for the indicated time points. For cells treated with Erwinase for longer than 24 hrs, cell culture media was replaced every 24 hrs and 1 IU/ml Erwinase was added to ensure the continued absence of glutamine. Cells were then stained with Annexin V-FITC (ebioscience) and Propidium Iodide (PI) and then analyzed by flow cytometry (BD LSR Fortessa). The upper right quadrant (Q2) indicates the fraction dead cells.
(§1) (A) Whole cell extracts from RAJI cells treated with control shRNA (shCTRL) or TRAF2 shRNA (shTRAF2) were immunoblotted for TRAF2 or as a loading control, GAPDH. (B) Annexin V staining of RAJI after Erwinase treatment (1 IU/ml; 24 hrs) in shCTRL, shTRAF1 or shTRAF2 cells.
(§2) It was next asked what the effect of reducing TRAF1 and its signalling partner TRAF2 in lymphoma had on cell proliferation and survival. […] To determine whether this effect was due to death of the lymphoma cells, Annexin V and propidium iodide (PI) staining of the lymphomas were analyzed at different times after transfer to Erwinase containing medium. Annexin V binds to phosphatidyl serine, which becomes exposed on the surface of cells as they undergo apoptosis. Then, cells become permeable to propidium iodide upon death. […] The slightly greater effect on cell death of direct TRAF1 knockdown compared to PKN1 knockdown is consistent with the smaller effect of PKN1 knockdown on TRAF1 levels compared to direct TRAF1 knockdown with shTRAF1.

[4] = system: RAJI cells; assay: MTT cell viability / growth assay; settings: for cell growth / proliferation with Erwinase (MTT): 1 IU/ml Erwinase
Protocol: MTT reagent was then solubilized with DMSO and absorbance was measured by ELISA plate reader at 560 nm and referenced to absorbance at 620 nm. Data are plotted as fold change relative to untreated shCtrl RAJI cells.
as §2
FIG. 7 provides a rationale for a screen for a PKN1 inhibitor that synergizes with Erwinase: In particular, the assay is used to look for inhibitors that act at nanomolar concentration to reduce cell survival. […] Inhibitors that reduce the signal in the MTT assay by at least 3 fold relative to Erwinase alone will be identified as potential PKN1 inhibitors. This initial screen is amenable to a 96 well plate assay in which each drug candidate is tested on control RAJI cells with and without Erwinase as well as shPKN1 RAJI cells with Erwinase. Candidate drugs that lower the signal on control RAJI cells only in the presence but not in the absence of Erwinase, and have no effect on PKN1 knockdown cells treated with Erwinase, represent candidates for kinase inhibitors that act through PKN1 inhibition to reduce TRAF1 levels. The candidates can then be verified by determining the inhibitory effects on TRAF1 levels.

[5] = system: TRAF2; assay: TRAF2 levels by immunoblot during nutrient stress; settings: RAJI cells, 1 IU/ml Erwinase, up to 6 hrs
Protocol: (B) Wild type (WT), shCtrl or shTRAF1 RAJI cells were treated with 1 IU/ml Erwinase for 1, 3 or 6 hrs and immunoblotted for TRAF2 and TRAF1.
Right: RAJI cells stably expressing shCtrl or shPKN1 were treated with 1 IU/ml Erwinase for 0, 3 or 6 hrs and lysates were immunoblotted for TRAF2, or as a loading control, GAPDH.
To test the effect of lower levels of TRAF1 on the level of TRAF2 in lymphoma, WT and shTRAF1 RAJI cells were incubated under conditions of nutrient stress (low glutamine). […] In order to mimic conditions of nutrient stress in a manner that can be useful therapeutically, the licensed drug Erwinase (described above) was utilized. […] Of note, in contrast to the work with primary cells, the loss of TRAF2 when TRAF1 is limiting occurred without a need to add reagents to specifically engage a TNFR family member, but rather occurs spontaneously upon nutrient stress.

[6] = system: Erk and NF-κB activation; assay: Flow cytometry for pERK and phospho P65 subunit of NFkB; settings: RAJI knockdown cells versus control sample
Description: as §1
(§3) TRAF2 knockdown also decreases RAJI survival in the presence of Erwinase (FIG. 14). […] On the Y axis, is indicated knockdown of TRAF2, PKN1, TRAF1 or control sample. The vertical dashed line indicates the peak level of expression in the control sample for comparison with the knockdown cells.

[7] = system: TRAF1; assay: TRAF1 levels by flow cytometry in knockdown RAJI; settings: RAJI knockdown cells versus control sample
Description: as §1, §3

[8] = system: panel of lymphoma and the CLL line MEC2; assay: Erwinase sensitivity versus TRAF1 expression in cell line panel; settings: 1 IU/ml Erwinase, 24 hours; lines with medium/hi TRAF1 expression
Protocol: Correlation plot of TRAF1 expression versus Erwinase sensitivity. Cell lines were treated with 1 IU/ml Erwinase for 24 hours and cell death was measured by AnnexinV/PI staining. Erwinase sensitivity is measured as % of cells AnnexinV^+, PI^+ and/or AnnexinV^+/PI^+ cells. Left: Erwinase sensitivity versus TRAF1 expression (measured by flow cytometry, gated on live cells) for a panel of lymphoma and the CLL line MEC2.
PKN1 stabilizes TRAF1 and TRAF1 serine 146, a target of PKN1 is required for TRAF1 stability (see above). As lowering TRAF1 by PKN1 knockdown increases sensitivity to nutrient stress, knockdown of PKN1 with RNA interference or anti-sense approaches, or inhibition of PKN1 using chemical inhibitors could be used to increase sensitivity to nutrient stress. In order to develop this strategy, biomarker needs to be developed to predict which cancers would be susceptible. To this end, TRAF1 protein expression was measured in a panel of human lymphomas and the CLL cell line MEC2 by flow cytometry and these levels were correlated with sensitivity to the nutrient stress-inducing drug Erwinase. […] However, in cells that express TRAF1 above an MFI of 1500, there was a strong correlation between TRAF1 levels and resistance to cell death induced by nutrient stress (FIG. 13). Cancers with these properties are candidates for therapy with PKN1 in combination with nutrient stress.

[9] = system: mTORC1; assay: pS6K / pS6 level as marker of mTORC1 activation; settings: RAJI lymphoma cells
Description: Left: Levels of pS6K in RAJI control cells. Right: Levels of pS6K in RAJI shTRAF1. Upper panels show pS6K, lower panels show GAPDH to control for equal loading. B. Schematic showing link between nutrient stress, mTORC1 and pS6. C. Left: Representative flow cytometry analysis of TRAF1 and phospho-S6 expression in Raji shCTRL and Raji shTraf1 cells. […] FMO is fluorescence minus one control stain. Right: Correlation plot of TRAF1 versus phospho-S6 expression in lymphoma and CLL cell lines (gated on live cells). All flow cytometry is based on gating on live cells (using live/dead staining marker).
In an effort to understand the mechanism of synergy between lowering TRAF1 levels and increased sensitivity to Erwinase, the activity of mTORC1, a key sensor of the nutrient state of the cells, was examined. Nutrient stress inhibits the activation of mTORC1, a key regulator of proliferation, metabolism and cell survival.^35 PhosphoS6K (pS6K), a downstream target of mTORC1, can be used as a marker of mTORC1 activation. […] However, unexpectedly, TRAF1 knockdown cells had lower basal level of pS6K prior to treatment, perhaps explaining the synergistic effect of TRAF1 knockdown with Erwinase treatment (FIG. 11A—compare right to left western blots). […] Further, a correlation between the level of TRAF1 in the cell and the activity of mTORC1 as measured by pS6 levels was shown (FIG. 11C).

Molecule | sensitivity to Erwinase induced death (Annexin V/PI) [1] | TRAF1 levels [2] | sensitivity to Erwinase induced death (Annexin V/PI) [3] | cell growth / proliferation with Erwinase (MTT) ([4]; RAJI) | tumour growth rate (MTT) ([4]; RAJI, complete culture medium, no Erwinase) | TRAF2 levels during Erwinase treatment [5] | constitutive Erk and NF-κB activation [6] | TRAF1 levels (flow cytometry) [7] | impact of Erwinase alone in MTT assay ([4]; control RAJI, 1 IU/ml, 48 hr) | Erwinase sensitivity (% AnnexinV+ and/or PI+ cells) versus TRAF1 expression [8] | level of pS6K / pS6 [9]
shPKN1: shRNA targeting PKN1, sequence CTGATGTGTGAGAAGCGGA (Open Biosystems TRC library) | increases the sensitivity of the Chronic lymphocytic leukemia cell line MEC2 to Erwinase induced death | decreases TRAF1 levels | Increases the Sensitivity of RAJI to Erwinase Induced Death | sensitizes lymphoma to growth inhibition by Erwinase | no impact on the tumour growth rate | sensitizes RAJI cells to TRAF2 loss during nutrient stress |  |  |  |  | 
shTRAF2: shRNA to TRAF2, mature antisense ATGGCGTGGAATCTGCAAGGG |  |  | increased susceptibility to Erwinase-mediated nutrient stress |  |  |  | reduces constitutive Erk and NF-κB activation | lowers TRAF1 levels |  |  | 
B1 |  |  |  | arrest in cell growth |  | significant reduction in TRAF2 levels only when TRAF1 was reduced by shRNA |  |  | minimal impact | inverse correlation between TRAF1 levels and Erwinase sensitivity | reduced the level of pS6K
